We go through one substance from publication PMC5004176, “The antifungal plant defensin AtPDF2.3 from Arabidopsis thaliana blocks potassium channels” (Scientific Reports, 2016).

The subject of data set [1] is Nav1.2. Briefly: Two-electrode voltage-clamp on Nav1.2 expressed in X. laevis oocytes. As to conditions: 5 μM, n ≥ 4. Type of data set: cell-based. For orientation: Two-electrode voltage clamp is typically applied to oocytes expressing channels or transporters.
For data set [2], the system named is Nav1.4. Briefly: Two-electrode voltage-clamp on Nav1.4 expressed in X. laevis oocytes. Type of data set: cell-based. As to conditions: 5 μM, n ≥ 4.
In data set [3] the test system is insect channel DmNav1. Briefly: Two-electrode voltage-clamp on DmNav1 expressed in X. laevis oocytes. Type of data set: cell-based. The note with it: 5 μM, n ≥ 4.
Data set [4] deals with Botrytis cinerea B05.10. Briefly: Fungal growth inhibitory assay. The format is cell-based. As to conditions: half strength PDB, 10^4 spores/mL, 48 hours, determined microscopically, n ≥ 3; read-out: IC50 (growth inhibition).
Data set [5] relates to Botrytis cinerea R16. Briefly: Fungal growth inhibitory assay. The format is cell-based. As to conditions: half strength PDB, 10^4 spores/mL, 48 hours, determined microscopically, n ≥ 3; read-out: IC50 (growth inhibition).
Data set [6] relates to Fusarium oxysporum. Briefly: Fungal growth inhibitory assay. The format is cell-based. The note with it: half strength PDB, 10^4 spores/mL, 48 hours, determined microscopically, n ≥ 3; read-out: IC50 (growth inhibition).
Data set [7] deals with Saccharomyces cerevisiae BY4743 WT. Briefly: Yeast growth inhibitory assay. The format is cell-based. As to conditions: MM medium, 24 hours, OD490nm, mean ± SEM, n ≥ 3, read-out: IC50 (growth inhibition).
Data set [8] concerns Saccharomyces cerevisiae BY4741 ∆trk1. Briefly: Yeast growth inhibitory assay. Type of data set: cell-based. As to conditions: BY4741 ∆trk1, MM medium, 24 hours, OD490nm, mean ± SEM, n ≥ 3; read-out: IC50 (growth inhibition).
For data set [9], the system named is Saccharomyces cerevisiae BY4741 ∆hal5. Briefly: Yeast growth inhibitory assay. The format is cell-based. As to conditions: BY4741 ∆hal5, MM medium, 24 hours, OD490nm, mean ± SEM, n ≥ 3; read-out: IC50 (growth inhibition).
For data set [10], the system named is Saccharomyces cerevisiae BY4741 ∆ppz2. Briefly: Yeast growth inhibitory assay. The note with it: BY4741 ∆ppz2, MM medium, 24 hours, OD490nm, mean ± SEM, n ≥ 3; read-out: IC50 (growth inhibition). Type of data set: cell-based.
Data set [11] deals with Saccharomyces cerevisiae BY4741 ∆kkq8. Briefly: Yeast growth inhibitory assay. Type of data set: cell-based. As to conditions: BY4741 ∆kkq8, MM medium, 24 hours, OD490nm, mean ± SEM, n ≥ 3; read-out: IC50 (growth inhibition).
Data set [12] relates to Saccharomyces cerevisiae BY4743 ∆frq1. Briefly: Yeast growth inhibitory assay. Type of data set: cell-based. As to conditions: BY4743 ∆frq1, MM medium, 24 hours, OD490nm, mean ± SEM, n ≥ 3; read-out: IC50 (growth inhibition).
Data set [13] deals with hERG (Kv11.1). Briefly: Two-electrode voltage-clamp on hERG expressed in X. laevis oocytes. As to conditions: 3 μM, n ≥ 3.
Experimental: (§1) For the expression of the voltage-gated potassium channels (rKv1.1, rKv1.2, hKv1.3, rKv1.4, rKv1.5, rKv1.6, Shaker IR, hKv3.1, rKv4.3, and hERG) in Xenopus laevis oocytes, the linearized plasmids were transcribed using the T7 or SP6 mMESSAGE-mMACHINE transcription kit (Ambion). The harvesting of stage V–VI oocytes from an anaesthetized female X. laevis frog was previously described[59]. Oocytes were injected with 50 nL of cRNA at a concentration of 1 ng/nL using a micro-injector (Drummond Scientific, USA). The oocytes were incubated in a solution containing (in mM): NaCl, 96; KCl, 2; CaCl2, 1.8; MgCl2, 2 and HEPES, 5 (pH 7.4), supplemented with 50 mg/L gentamycin sulfate.
(§2) Two-electrode voltage-clamp recordings were performed at room temperature (18–22 °C) using a Geneclamp 500 amplifier (Molecular Devices, USA) controlled by a pClamp data acquisition system (Axon Instruments, USA). Whole cell currents from oocytes were recorded 1–4 days after injection. Bath solution composition was ND96 (in mM): NaCl, 96; KCl, 2; CaCl2, 1.8; MgCl2, 2 and HEPES, 5 (pH 7.4) or HK (in mM): NaCl, 2; KCl, 96; CaCl2, 1.8; MgCl2, 2 and HEPES, 5 (pH 7.4). Voltage and current electrodes were filled with 3 M KCl. Resistances of both electrodes were kept between 0.7 and 1.5 MΩ. […] GV curves were calculated from IV relationships as follows: gK = IK/(Em−EK) with EK = (RT/zF)ln[K #0]o/[K #0]i. […]
The subject of data set [14] is Kv2.1. Briefly: Two-electrode voltage-clamp on Kv2.1 expressed in X. laevis oocytes. The note with it: 3 μM, n ≥ 3.
Experimental: as §1, §2

By IC50 is commonly meant the midpoint of a concentration-inhibition curve.

Ends that are not written are not given here.

“rAtPDF2.3: Arabidopsis thaliana plant defensin AtPDF2.3 produced recombinantly in Pichia pastoris (RTCESKSHRFKGPCVSTHNCANVCHNEGFGGGKCRGFRRRCYCTRHC; ends and bridges not checked; cysteine pairing not given here)”: the “activity on Nav1.2” value in [1] is reported as “does not show activity”. Also, the “activity on Nav1.4” value in data set [2] is reported as “does not show activity”. Also, the “activity on DmNav1” value in data set [3] is recorded as “does not show activity”. Further, the IC50 in [4] amounted to 5.8 µM; in [5] it was 5.8 µM; in data set [6], 4.4 ± 1.6 µM; in data set [7], 3.3 µM; in data set [8], 1.5 µM; in data set [9], 4 ± 0.4 µM. Also, the values for the IC50 in data set [10], in data set [11] and in [12] were 8.6 ± 0.5 µM, 7.1 ± 0.1 µM and 3.1 ± 0.1 µM, respectively. In data set [13], the “activity on hERG (Kv11.1) at single concentration” value is on record as “no effect”. Further, the “activity on Kv2.1 (Shab) at single concentration” value in data set [14] is listed as “no effect”.
